Test results as given in patent US20210205340A1, “COMPOSITIONS COMPRISING SIALYLATED OLIGOSACCHARIDES FOR USE IN INFANTS OR YOUNG CHILDREN TO PREVENT LATER IN LIFE OBESITY OR RELATED COMORBIDITIES AND PROMOTE A HEALTHY GROWTH” (NESTEC S.A., priority 2016, published 2021).
“Also recorded” adds a separate entry of the source.

Test system: NCI-H716 cells
Test: Calcium assay: activation of NCI-H716 cells by sialylated oligosaccharides (change in fluorescence ratio from intracellular calcium increase)
Assay type: cell-based, human
Settings: for significance of the increase in fluorescence ratio / concentration dependence of calcium response / activation of NCI-H716 cells / fluorescence ratio (intracellular calcium response): NCI-H716 cells; for significance of the increase in fluorescence ratio: 5 mg/mL, 10 mg/mL and 20 mg/mL, p<0.05 vs Negative control, two-sided t-test; for concentration dependence of calcium response / activation of NCI-H716 cells: 1-20 mg/mL, FIG. 1 / FIG. 3; for fluorescence ratio (intracellular calcium response): all the tested concentrations (1 mg/mL, 5 mg/mL, 10 mg/mL and 20 mg/mL), vs buffer negative control; for intracellular calcium release: in vitro system with endocrine intestinal cells, indicator of potential GLP-1 secretagogue capacity
From the text: NCI-H716 is a cell line derived from human L-cells, the enteroendocrine cells that secrete GLP-1, and it is often used as a model of GLP-1 secretion. Unstimulated NCI-H716 cells secrete a basal level of GLP-1 and activation of the cells leads to dose-dependent increase in GLP-1 secretion. Activation of the NCI-H716 cells and subsequent release of GLP-1 can be triggered by nutrients such as palmitic acid, oleic acid, and meat hydrolysate, Gastrin Releasing Peptide (GRP), the cholinergic molecule Carbachol, bitter compounds such as denatonium, ginsenosides and other molecules.
Activation of NCI-H716 cells by ionomycin, GRP, denatonium, or ginsenosides leads to increased intracellular calcium. Elevation of intracellular calcium is therefore a marker of cell activation and in NCI-H716 cells it could be considered as an indicator of GLP-1 release.
A calcium assay was used to determine if NCI-H716 cells respond to human milk oligosaccharides (sialylated oligosaccharides) or components/precursors thereof (lactose and sialic acid). In this assay, cultured NCI-H716 cells were loaded with a fluorescent calcium sensitive dye then stimulated with the HMOs. The response to the stimulus was measured by change in fluorescence ratio in consequence of intracellular calcium increase. The tested HMOs were 3′-sialyllactose (3SL) and 6′-sialyllactose (6SL). They were tested individually.
GRP (Gastrin Releasing Peptide): positive control
Tested HMOs concentrations: 1 mg/mL, 5 mg/mL, 10 mg/mL and 20 mg/mL
Tested lactose and sialic acid concentrations: 5.5 mg/mL and 4.72 mg/mL respectively (correspond to the amounts contained in 10 mg/mL of 3SL, in order to make a suitable comparison with 10 mg/mL of 3SL)

| Structure (SMILES) | activation of NCI-H716 cells (calcium response) (lactose 5.5 mg/mL (amount contained in 10 mg/mL of 3SL), FIG. 2) | specificity of the calcium response (3SL 10 mg/mL compared with its components lactose and sialic acid, FIG. 2) | significance of the increase in fluorescence ratio | concentration dependence of calcium response / activation of NCI-H716 cells | fluorescence ratio (intracellular calcium response) | intracellular calcium release | activation of NCI-H716 cells (calcium response) (sialic acid 4.72 mg/mL (amount contained in 10 mg/mL of 3SL), FIG. 2) |
| --- | --- | --- | --- | --- | --- | --- | --- |
| OC[C@H]1O[C@@H](O[C@H]2[C@H](O)[C@@H](O)C(O)O[C@@H]2CO)[C@H](O)[C@@H](O)[C@H]1O (some centres unmarked) [Lactose, lactose, reference compound] | did not activate the cells | – | – | – | – | – | – |
| CC(=O)N[C@H]1[C@H]([C@H](O)[C@H](O)CO)O[C@@](O[C@H]2[C@@H](O)[C@@H](CO)O[C@@H](O[C@H]3[C@H](O)[C@@H](O)C(O)O[C@@H]3CO)[C@@H]2O)(C(=O)O)C[C@@H]1O (stereo partly drawn) [3SL, (6R)-5-Acetamido-3,5-dideoxy-6-[(1R,2R)-1,2,3-trihydroxypropyl]-β-L-threo-hex-2-ulopyranonosyl-(2->3)β-D-galactopyranosyl-(1->4)-D-glucopyranose] | – | specific | significant | clear concentration dependent calcium response; also recorded: dose dependent activation | enhanced | increased intracellular calcium release | – |
| CC(=O)N[C@H]1[C@H]([C@H](O)[C@H](O)CO)OC(O)(C(=O)O)C[C@@H]1O (some centres unmarked) [sialic acid, N-acetylneuraminic acid, reference compound] | – | – | – | – | – | – | did not activate the cells |
| CC(=O)N[C@H]1[C@H]([C@H](O)[C@H](O)CO)O[C@@](OC[C@H]2O[C@@H](O[C@H]3[C@H](O)[C@@H](O)C(O)O[C@@H]3CO)[C@H](O)[C@@H](O)[C@H]2O)(C(=O)O)C[C@@H]1O (stereo partly drawn) [6SL, (6R)-5-Acetamido-3,5-dideoxy-6-[(1R,2R)-1,2,3-trihydroxypropyl]-β-L-threo-hex-2-ulopyranonosyl-(2->6)β-D-galactopyranosyl-(1->4)-D-glucopyranose] | – | – | significant | clear concentration dependent calcium response; also recorded: dose dependent activation | enhanced | increased intracellular calcium release | – |
